“Also recorded” adds a separate entry of the source.

One assay relates to FLJXXXXX-derived proteins. Put plainly: SEC/MS spin column interaction analysis of FLJXXXXX-derived proteins and various compounds (Tables 30-1 to 30-4). The assay is classed as binding, human.
Details: not given
On to `CCCSc1ccc2nc(NC(=O)OC)[nH]c2c1` [albendazole], for which the “FLJ No of the derived protein with which the compound was judged to exhibit a concentration-dependent interaction” value (shortened to “FLJ No of the derived protein”) is recorded as “FLJ35353”.

Staying with this assay, now noted: SEC spin column filtrate, spectral intensity increased with doses of compound and protein.
For the compound `Cl.Cl.OCCN1CCN(CCC=C2c3ccccc3Sc3ccc(C(F)(F)F)cc32)CC1` (mixture of isomers) [flupentixol], the “FLJ No of the derived protein” value is reported as “FLJ37909”. Same read-out and setting: next, `c1ccc2c(c1)CCCc1cc(NCCN3CCOCC3)nnc1-2` [SR-95639A]: “FLJ36526”; `CC(=O)c1ccc2c(c1)N(CCCN(C)C)c1ccccc1S2` [acetopromazine]: “FLJ36526”. Still for that read-out and setting: next, `CC(CN(C)C)CN1c2ccccc2Sc2ccccc21` (centres unmarked) [alimemazine]: “FLJ37909”; `NCC[C@H](O)C(=O)N[C@@H]1C[C@H](N)[C@@H](O[C@H]2O[C@H](CN)[C@@H](O)[C@H](O)[C@H]2O)[C@H](O)[C@H]1O[C@H]1O[C@H](CO)[C@@H](O)[C@H](N)[C@H]1O` [amikacin]: “FLJ37909”. On the same count and under the same terms, next, `CCCCc1oc2ccccc2c1C(=O)c1cc(I)c(OCCN(CC)CC)c(I)c1` [amiodarone]: “FLJ37909”; `O=c1cc(-c2ccc(O)cc2)oc2cc(O)cc(O)c12` [apigenin]: “FLJ39553”. As to `CCC(C)C1O[C@]2(C=C[C@@H]1C)C[C@@H]1CC(C/C=C(\C)[C@@H](OC3C[C@H](OC)[C@@H](OC4C[C@H](OC)[C@@H](O)[C@H](C)O4)[C@H](C)O3)[C@@H](C)/C=C/C=C3\COC4[C@H](O)C(C)=CC(C(=O)O1)[C@]34O)O2` (some centres unmarked) [avermectin B1A], the “FLJ No of the derived protein” value is listed as “FLJ39553”. Regarding `COc1c(O)cc2c(c1O)[C@@H]1O[C@H](CO)[C@@H](O)[C@H](O)[C@H]1OC2=O` [bergenin], the “FLJ No of the derived protein” value is listed as “FLJ39553”.

Regarding `CCCCC[C@](C)(O)/C=C/[C@@H]1[C@@H](C/C=C\CCCC(=O)O)[C@@H](O)C[C@H]1O` [carboprost], the “FLJ No of the derived protein” value is recorded as “FLJ39553”. On to `O=C(O)CCCc1ccc(N(CCCl)CCCl)cc1` [chlorambucil], for which the “FLJ No of the derived protein” value is recorded as “FLJ23466”. On the same count and under the same terms, next, `[H]/N=C(\N/C(=N/[H])NCCCCCCNC(=N)NC(=N)Nc1ccc(Cl)cc1)Nc1ccc(Cl)cc1` [chlorhexidine]: “FLJ37909”. On the same count and under the same terms, the same measure for `CN(C)CCCN1c2ccccc2Sc2ccc(Cl)cc21` [chlorpromazine]: “FLJ35353”; for `C=C[C@H]1C[N@@]2CC[C@H]1C[C@@H]2[C@@H](O)c1ccnc2ccccc12` [cinchonine]: “FLJ39553”; for `CN1C(=O)CC(=O)N(c2ccccc2)c2cc(Cl)ccc21` [clobazam]: “FLJ35353”. Still for that read-out and setting: the same measure for `CC(C)/N=c1\cc2n(-c3ccc(Cl)cc3)c3ccccc3nc-2cc1Nc1ccc(Cl)cc1` [clofazimine]: “FLJ35353”; for `CCN(CC)CCOc1ccc(C(=C(Cl)c2ccccc2)c2ccccc2)cc1` [clomiphene]: “FLJ37909”. As for `CN(C)[C@@H]1C(O)=C(C(N)=O)C(=O)[C@@]2(O)C(O)=C3C(=O)c4c(O)ccc(Cl)c4[C@@H](O)[C@H]3C[C@@H]12` [demeclocycline], the “FLJ No of the derived protein” value was “FLJ39553”.

In the case of `CC(C)[C@@]1(NC(=O)[C@@H]2C[C@@H]3c4cccc5[nH]cc(c45)C[C@H]3N(C)C2)O[C@@]2(O)[C@@H]3CCCN3C(=O)[C@H](Cc3ccccc3)N2C1=O` [dihydroergocristine], the “FLJ No of the derived protein” value is “FLJ37909”. On the same count and under the same terms, next, `CN1C[C@H](C(=O)N[C@]2(C)O[C@@]3(O)[C@@H]4CCCN4C(=O)[C@H](Cc4ccccc4)N3C2=O)C[C@@H]2c3cccc4[nH]cc(c34)C[C@H]21` [dihydroergotamine]: “FLJ37909”. The same measure, in the same setting: next, `C[N+]1(C)CCC(=C(c2ccccc2)c2ccccc2)CC1` [diphemanil]: “FLJ36526”; `Cc1c(N(C)CS(=O)(=O)[O-])c(=O)n(-c2ccccc2)n1C.[Na+]` [dipyrone]: “FLJ35353”; `O=c1[nH]c2ccccc2n1CCCN1CCC(n2c(=O)[nH]c3cc(Cl)ccc32)CC1` [domperidone]: “FLJ20571”. The same measure, in the same setting: the same measure for `COc1cc2nc(N3CCN(C(=O)C4COc5ccccc5O4)CC3)nc(N)c2cc1OC` (centres unmarked) [doxazosin]: “FLJ37909”; for `CC(=O)[C@H]1CC[C@H]2[C@@H]3C=CC4=CC(=O)CC[C@@]4(C)[C@@H]3CC[C@]12C` [dydrogesterone]: “FLJ35353”; for `Cc1c2ccncc2c(C)c2c1[nH]c1ccccc12` [ellipticine]: “FLJ35353”. Take `CC[C@H]1CN2CCc3cc(OC)c(OC)cc3[C@@H]2C[C@@H]1C[C@H]1NCCc2cc(OC)c(OC)cc21` [emetine]: the “FLJ No of the derived protein” value was “FLJ37909”. The same measure, in the same setting: the same measure for `CCN1C(=O)NC(c2ccccc2)C1=O` (centres unmarked) [ethotoin]: “FLJ38531”; for `CCOC(=O)C1N=C(c2ccccc2F)c2cc(Cl)ccc2NC1=O` (centres unmarked) [ethyl loflazepate]: “FLJ35353”; for `COC(=O)Nc1nc2ccc(Sc3ccccc3)cc2[nH]1` [fenbendazole]: “FLJ37909”. As to `CC1CCc2cc(F)cc3c(=O)c(C(=O)O)cn1c23` (centres unmarked) [flumequine], the “FLJ No of the derived protein” value is reported as “FLJ38531”. On to `Fc1ccc(C(c2ccc(F)cc2)N2CCN(C/C=C/c3ccccc3)CC2)cc1` [flunarizine], for which the “FLJ No of the derived protein” value was “FLJ37909”.

As for `Cc1cnc(C(=O)NCCc2ccc(S(=O)(=O)NC(=O)NC3CCCCC3)cc2)cn1` [glipizide], the “FLJ No of the derived protein” value is recorded as “FLJ35353”. As to `COc1ccc2c3c([nH]c2c1)C(C)=NCC3` [harmaline], the “FLJ No of the derived protein” value is “FLJ39553”. Turning to `O=C1CNC(=O)N1` [hydantoin], the “FLJ No of the derived protein” value is given as “FLJ35914”. On the same count and under the same terms, next, `CC(=O)[C@@]1(O)CC[C@H]2[C@@H]3CCC4=CC(=O)CC[C@]4(C)[C@H]3CC[C@@]21C` [hydroxyprogesterone]: “FLJ37909”; `Cc1cccc(C)c1NC(=O)CN1CCN(CCCC(c2ccc(F)cc2)c2ccc(F)cc2)CC1` [lidoflazine]: “FLJ37909”; `NCCCC[C@H](N[C@@H](CCc1ccccc1)C(=O)O)C(=O)N1CCC[C@H]1C(=O)O` [lisinopril]: “FLJ40760”.

`NCc1ccc(S(N)(=O)=O)cc1` [mafenide]: the “FLJ No of the derived protein” value is listed as “FLJ21841”. The same measure, in the same setting: the same measure for `Cc1cccc(Nc2ccccc2C(=O)O)c1C` [mefenamic acid]: “FLJ35353”. With `CN1CCCCC1CCN1c2ccccc2Sc2ccc([S+](C)[O-])cc21` (centres unmarked) [mesoridazine], the “FLJ No of the derived protein” value is listed as “FLJ11211”. Still for that read-out and setting: next, `CN1C[C@H](CNC(=O)OCc2ccccc2)C[C@@H]2c3cccc4c3c(cn4C)C[C@H]21` [metergoline]: “FLJ37909”; `CN1CCCC(CC2c3ccccc3Sc3ccccc32)C1` (centres unmarked) [methixene]: “FLJ35353”; `COc1ccc2[nH]c3c(c2c1)CCN=C3C` [methoxy-6-harmalan]: “FLJ39553”. Still for that read-out and setting: the same measure for `Cc1cc(C(C)(C)CC(C)(C)C)ccc1OCCOCC[N+](C)(C)Cc1ccccc1.[Cl-]` [methylbenzethonium chloride]: “FLJ20571; also recorded: FLJ35353”; for `Cc1cc2c(cc1S(N)(=O)=O)S(=O)(=O)CCC2` [meticrane]: “FLJ39553”. For the compound `CC#C[C@]1(O)CC[C@H]2[C@@H]3CCC4=CC(=O)CCC4=C3[C@@H](c3ccc(N(C)C)cc3)C[C@@]21C` [mifepristone], the “FLJ No of the derived protein” value is “FLJ22317”. Still for that read-out and setting: next, `CCOc1ccc2ccccc2c1C(=O)N[C@@H]1C(=O)N2[C@@H]1SC(C)(C)[C@@H]2C(=O)O` [nafcillin]: “FLJ39553”; `CC1CCCC(C)N1` (stereo not drawn) [nanofin (cis), nanofin]: “FLJ42665”.

`O=C1CN=C(c2ccccc2)c2cc(Cl)ccc2N1` [nordiazepam]: the “FLJ No of the derived protein” value is “FLJ35353”. On the same count and under the same terms, next, `CN(C(=O)CN(CCO)CC(=O)N(C)C(C)(C)Cc1ccccc1)C(C)(C)Cc1ccccc1` [oxethazaine]: “FLJ37909”; `CCn1cc(C(=O)O)c(=O)c2cc3c(cc21)OCO3` [oxolinic acid]: “FLJ37909”.

These data come from patent publication US20090143285A1, “TARGET PROTEIN AND TARGET GENE FOR DRUG DISCOVERY AND SCREENING METHOD” (REVERSE PROTEOMICS RESEARCH INSTITUTE CO., LTD., priority 2005, published 2009).
